Results as given in patent US12052991B2, “Substituted pyridinyloxybenzenes and salts thereof and use thereof as herbicidal agents” (Bayer Aktiengesellschaft, priority 2018, dated 2024).

Key:
Type in all cases: in vivo
Lolium rigidum (LOLRI) [1] = assay: Herbicidal post-emergence action (Table B2); conditions: 1280 g/ha; rated visually after about 3 weeks; 100% = plants have died, 0% = like control plants
Method: (§1) Seeds of mono- and dicotyledonous weed plants were placed in plastic pots in sandy loam soil (doubly sown with in each case one species of mono- or dicotyledonous weed plants per pot), covered with soil and cultivated in a greenhouse under controlled growth conditions. 2 to 3 weeks after sowing, the test plants were treated at the one-leaf stage. The compounds of the invention, formulated in the form of wettable powders (WP) or as emulsion concentrates (EC), were applied onto the green parts of the plants as aqueous suspension or emulsion with addition of 0.5% additive at a water application rate of 600 liters per hectare (converted). After the test plants had been kept in the greenhouse under optimum growth conditions for about 3 weeks, the activity of the preparations was rated visually in comparison to untreated controls. For example, 100% activity=the plants have died, 0% activity=like control plants. Tables B1 to B12 below show the effects of selected compounds of the general formula (I) according to Table 1 on various harmful plants and an application rate corresponding to 1280 or 320 g/ha, which were obtained by the experimental procedure mentioned above.

[2] = system: harmful plants ABUTH, AMARE, ECHCG, LOLRI, MATIN, POAAN, SETVI, STEME, ALOMY, DIGSA, KCHSC and VERPE; assay: Herbicidal post-emergence action, summary of Tables B1-B12; conditions: application rate of 1280 or 320 g of active ingredient per hectare; summary in words
How it was run: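 Activity scored by eye roughly 3 weeks post-treatment against untreated plants, from 0% (no effect) to 100% (plants dead). Application rates were 1280 or 320 g/ha, as aqueous WP/EC spray plus 0.5% additive at 600 L/ha, onto one-leaf-stage weeds grown 2–3 weeks in sandy loam.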

Lolium rigidum (LOLRI) [3] = assay: Herbicidal pre-emergence action, test C (Table C2); conditions: dosage 1280 g/ha; visual scoring after about 3 weeks; 100% = plants have died, 0% = like control plants
How it was run: (§2)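 Visual scoring after about 3 weeks in the greenhouse gave % activity relative to untreated controls, 100% meaning plants died. Compounds, as WP or EC with 0.5% additive, had been applied to covering soil at 1280 or 320 g/ha in 600 L/ha water.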

Setaria viridis (SETVI) [4] = assay: Herbicidal pre-emergence action, test C (Table C4); conditions: visual scoring after about 3 weeks, 100% = plants have died, 0% = like control plants
How it was run: as §2

Setaria viridis (SETVI) [5] = assay: Herbicidal post-emergence action (Table B4); conditions: rated visually after about 3 weeks, 100% = plants have died, 0% = like control plants
Method: as §1

Poa annua (POAAN) [6] = assay: Herbicidal pre-emergence action, test C (Table C3); conditions: visual scoring after about 3 weeks, 100% = plants have died, 0% = like control plants
How it was run: as §2

[7] = system: Abutilon theophrasti (ABUTH); assay: Herbicidal pre-emergence action, test C (Table C5); conditions: visual scoring after about 3 weeks, 100% = plants have died, 0% = like control plants
How it was run: as §2

[8] = system: Echinochloa crus-galli (ECHCG); assay: Herbicidal post-emergence action (Table B1); conditions: rated visually after about 3 weeks, 100% = plants have died, 0% = like control plants
How it was run: (§3)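 Post-emergence spray, one-leaf stage (2–3 wk after sowing), sandy loam, greenhouse. WP/EC in water + 0.5% additive, 600 L/ha, 1280 or 320 g/ha. Visual % activity vs untreated after ~3 wk (0% = like control, 100% = plants dead).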

[9] = system: Amaranthus retroflexus (AMARE); assay: Herbicidal post-emergence action (Table B6); conditions: visual rating about 3 weeks after treatment, 100% = plants have died, 0% = like control plants
How it was run: as §3

Stellaria media (STEME) [10] = assay: Herbicidal post-emergence action (Table B8); conditions: visual rating about 3 weeks after treatment, 100% = plants have died, 0% = like control plants
How it was run: as §3

[11] = system: Matricaria inodora (MATIN); assay: Herbicidal pre-emergence action, test C (Table C7); conditions: visual scoring after about 3 weeks, 100% = plants have died, 0% = like control plants
How it was run: as §2

[12] = system: harmful plants ABUTH, AMARE, ECHCG, LOLRI, MATIN, POAAN, SETVI, STEME, ALOMY, DIGSA, KCHSC and VERPE; assay: Herbicidal pre-emergence action (test C), summary of Tables C1-C12; conditions: application rate of 1280 or 320 g of active ingredient per hectare; summary in words
How it was run: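 Visual % damage versus untreated plants (0% = like control, 100% = died) was scored after about 3 weeks in the greenhouse. Before emergence, seeds sown in sandy loam got a soil-surface spray of compound as WP or EC plus 0.5% additive, using 600 L/ha water at rates of 1280 or 320 g/ha.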

Poa annua (POAAN) [13] = assay: Herbicidal post-emergence action (Table B3); conditions: rated visually after about 3 weeks, 100% = plants have died, 0% = like control plants
How it was run: as §3

[14] = system: Abutilon theophrasti (ABUTH); assay: Herbicidal post-emergence action (Table B5); conditions: rated visually after about 3 weeks, 100% = plants have died, 0% = like control plants
How it was run: as §3

[15] = system: Amaranthus retroflexus (AMARE); assay: Herbicidal pre-emergence action, test C (Table C6); conditions: visual scoring after about 3 weeks, 100% = plants have died, 0% = like control plants
How it was run: as §2

[16] = system: Echinochloa crus-galli (ECHCG); assay: Herbicidal pre-emergence action, test C (Table C1); conditions: visual scoring after about 3 weeks, 100% = plants have died, 0% = like control plants
How it was run: as §2

Stellaria media (STEME) [17] = assay: Herbicidal pre-emergence action, test C (Table C8); conditions: visual scoring after about 3 weeks, 100% = plants have died, 0% = like control plants
How it was run: as §2

Row | Compound | Post-emergence action against Lolium rigidum (LOLRI) (Lolium rigidum (LOLRI) [1]) [%] | herbicidal activity against the harmful plants of Tables B1-B12 in post-emergence treatment [2] | Pre-emergence action against Lolium rigidum (LOLRI) (Lolium rigidum (LOLRI) [3]) [%] | Pre-emergence action against Setaria viridis (SETVI) (Setaria viridis (SETVI) [4]; dosage 320 g/ha) [%] | Pre-emergence action against Setaria viridis (SETVI) (Setaria viridis (SETVI) [4]; dosage 1280 g/ha) [%] | Post-emergence action against Setaria viridis (SETVI) (Setaria viridis (SETVI) [5]; 1280 g/ha) [%] | Pre-emergence action against Poa annua (POAAN) (Poa annua (POAAN) [6]; dosage 320 g/ha) [%] | Pre-emergence action against Poa annua (POAAN) (Poa annua (POAAN) [6]; dosage 1280 g/ha) [%] | Pre-emergence action against Abutilon theophrasti (ABUTH) ([7]; dosage 320 g/ha) [%] | Pre-emergence action against Abutilon theophrasti (ABUTH) ([7]; dosage 1280 g/ha) [%] | Post-emergence action against Echinochloa crus-galli (ECHCG) ([8]; 320 g/ha) [%] | Post-emergence action against Echinochloa crus-galli (ECHCG) ([8]; 1280 g/ha) [%] | Post-emergence action against Amaranthus retroflexus (AMARE) ([9]; dosage 1280 g/ha) [%] | Post-emergence action against Stellaria media (STEME) (Stellaria media (STEME) [10]; dosage 320 g/ha) [%] | Post-emergence action against Stellaria media (STEME) (Stellaria media (STEME) [10]; dosage 1280 g/ha) [%] | Pre-emergence action against Matricaria inodora (MATIN) ([11]; dosage 1280 g/ha) [%] | herbicidal activity against the harmful plants of Tables C1-C12 in pre-emergence treatment [12] | Post-emergence action against Poa annua (POAAN) (Poa annua (POAAN) [13]; 320 g/ha) [%] | Post-emergence action against Poa annua (POAAN) (Poa annua (POAAN) [13]; 1280 g/ha) [%] | Post-emergence action against Abutilon theophrasti (ABUTH) ([14]; 320 g/ha) [%] | also measured
1 | Fc1cccc(Oc2ncc(Cl)cc2Cl)c1-c1cc(C(F)F)no1 [Example 1-21] | 100 | very good herbicidal activity | 100 | 100 | 100 | 100 | 100 | 100 | 90 | 90 | 100 | 100 | 90 | 100 | 100 | 90 | very good herbicidal activity | 100 | 100 | 100 | Post-emergence action against Setaria viridis (SETVI) (Setaria viridis (SETVI) [5]; 320 g/ha): 90%; Post-emergence action against Abutilon theophrasti (ABUTH) ([14]; 1280 g/ha): 100%; Pre-emergence action against Amaranthus retroflexus (AMARE) ([15]; dosage 320 g/ha): 100%; Pre-emergence action against Amaranthus retroflexus (AMARE) ([15]; dosage 1280 g/ha): 100%
2 | Fc1cccnc1Oc1cccc(F)c1-c1cc(C(F)F)no1 [Example 1-23] | 100 | very good herbicidal activity | 100 | 100 | 100 | 90 | 90 | 100 | 100 | 100 | 100 | 100 | 100 | 100 | 100 | 100 | very good herbicidal activity | 100 | 100 | 100 | Pre-emergence action against Echinochloa crus-galli (ECHCG) ([16]; dosage 320 g/ha): 100%; Pre-emergence action against Echinochloa crus-galli (ECHCG) ([16]; dosage 1280 g/ha): 100%; Post-emergence action against Amaranthus retroflexus (AMARE) ([9]; dosage 320 g/ha): 100%; Pre-emergence action against Stellaria media (STEME) (Stellaria media (STEME) [17]; dosage 320 g/ha): 100%; Pre-emergence action against Stellaria media (STEME) (Stellaria media (STEME) [17]; dosage 1280 g/ha): 100%; Pre-emergence action against Matricaria inodora (MATIN) ([11]; dosage 320 g/ha): 90%; Post-emergence action against Abutilon theophrasti (ABUTH) ([14]; 1280 g/ha): 100%; Pre-emergence action against Amaranthus retroflexus (AMARE) ([15]; dosage 1280 g/ha): 100%
